From PubChem BioAssay (NCI)
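Cultured in 96-well plates, cells were exposed to test compound for 48 hours across five concentrations. TGI: total growth inhibition.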

Assays:
Assay in all cases: growth of human tumour cells (NCI), 48 h
A498 renal = tested on: A498 renal
ACHN renal = tested on: ACHN renal
UACC-62 melanoma = tested on: UACC-62 melanoma
K-562 leukemia = tested on: K-562 leukemia
T-47D breast = tested on: T-47D breast
SF-295 CNS = tested on: SF-295 CNS
EKVX NSCLC = tested on: EKVX NSCLC
HS 578T breast = tested on: HS 578T breast
OVCAR-3 ovarian = tested on: OVCAR-3 ovarian
MDA-MB-435 = tested on: MDA-MB-435
SK-MEL-2 melanoma = tested on: SK-MEL-2 melanoma
UO-31 renal = tested on: UO-31 renal
RPMI-8226 leukemia = tested on: RPMI-8226 leukemia
OVCAR-5 ovarian = tested on: OVCAR-5 ovarian
NCI/ADR-RES ovarian = tested on: NCI/ADR-RES ovarian
SK-OV-3 ovarian = tested on: SK-OV-3 ovarian
MDA-N = tested on: MDA-N
UACC-257 melanoma = tested on: UACC-257 melanoma
786-0 renal = tested on: 786-0 renal
OVCAR-4 ovarian = tested on: OVCAR-4 ovarian
SF-539 CNS = tested on: SF-539 CNS
HT29 colon = tested on: HT29 colon
MCF7 breast = tested on: MCF7 breast
NCI-H522 lung = tested on: NCI-H522 lung
SK-MEL-5 melanoma = tested on: SK-MEL-5 melanoma
NCI-H226 lung = tested on: NCI-H226 lung
IGROV1 ovarian = tested on: IGROV1 ovarian
HOP-62 NSCLC = tested on: HOP-62 NSCLC
HCT-15 colon = tested on: HCT-15 colon
KM12 colon = tested on: KM12 colon
NCI-H460 lung = tested on: NCI-H460 lung
CAKI-1 renal = tested on: CAKI-1 renal
TK-10 renal = tested on: TK-10 renal
CCRF-CEM leukemia = tested on: CCRF-CEM leukemia
SN12C renal = tested on: SN12C renal
SNB-19 CNS = tested on: SNB-19 CNS
COLO 205 colon = tested on: COLO 205 colon
OVCAR-8 ovarian = tested on: OVCAR-8 ovarian
A549 NSCLC = tested on: A549 NSCLC
MALME-3M melanoma = tested on: MALME-3M melanoma
MOLT-4 leukemia = tested on: MOLT-4 leukemia
M14 melanoma = tested on: M14 melanoma
PC-3 prostate = tested on: PC-3 prostate
BT-549 breast = tested on: BT-549 breast
RXF 393 renal = tested on: RXF 393 renal
SK-MEL-28 melanoma = tested on: SK-MEL-28 melanoma
MDA-MB-231 breast = tested on: MDA-MB-231 breast
SR leukemia = tested on: SR leukemia
HCC-2998 colon = tested on: HCC-2998 colon
U251 CNS = tested on: U251 CNS
DU-145 prostate = tested on: DU-145 prostate
NCI-H23 lung = tested on: NCI-H23 lung
SF-268 CNS = tested on: SF-268 CNS
HCT-116 colon = tested on: HCT-116 colon
HOP-92 NSCLC = tested on: HOP-92 NSCLC
HL-60(TB) leukemia = tested on: HL-60(TB) leukemia
SW-620 colon = tested on: SW-620 colon
SNB-75 CNS = tested on: SNB-75 CNS
LOX IMVI melanoma = tested on: LOX IMVI melanoma

## CO/C=C(/C(=O)OC)c1ccccc1[C@@H]1CC1c1cccc(F)c1 (some centres undefined)
A498 renal
  TGI: 95.9 µM
ACHN renal
  TGI: 62.7 µM
UACC-62 melanoma
  TGI: 50.2 µM
K-562 leukemia
  TGI: > 100 µM
T-47D breast
  TGI: > 100 µM
SF-295 CNS
  TGI: > 100 µM
EKVX NSCLC
  TGI: 88.1 µM
HS 578T breast
  TGI: > 100 µM
OVCAR-3 ovarian
  TGI: > 100 µM
MDA-MB-435
  TGI: 44 µM
SK-MEL-2 melanoma
  TGI: 37.4 µM
UO-31 renal
  TGI: > 100 µM
RPMI-8226 leukemia
  TGI: 48.3 µM
OVCAR-5 ovarian
  TGI: > 100 µM
NCI/ADR-RES ovarian
  TGI: 91.8 µM
SK-OV-3 ovarian
  TGI: 79.7 µM
MDA-N
  TGI: 91.2 µM
UACC-257 melanoma
  TGI: 52.4 µM
786-0 renal
  TGI: > 100 µM
OVCAR-4 ovarian
  TGI: 96.7 µM
SF-539 CNS
  TGI: 58.1 µM
HT29 colon
  TGI: > 100 µM
MCF7 breast
  TGI: > 100 µM
NCI-H522 lung
  TGI: 35.3 µM
SK-MEL-5 melanoma
  TGI: 24.8 µM
NCI-H226 lung
  TGI: > 100 µM
IGROV1 ovarian
  TGI: 62.8 µM
HOP-62 NSCLC
  TGI: > 100 µM
HCT-15 colon
  TGI: 78.1 µM
KM12 colon
  TGI: 83.9 µM
NCI-H460 lung
  TGI: > 100 µM
CAKI-1 renal
  TGI: 70.4 µM
TK-10 renal
  TGI: > 100 µM
CCRF-CEM leukemia
  TGI: 87.7 µM
SN12C renal
  TGI: 98.4 µM
SNB-19 CNS
  TGI: > 100 µM
COLO 205 colon
  TGI: 30.3 µM
OVCAR-8 ovarian
  TGI: > 100 µM
A549 NSCLC
  TGI: 78.5 µM
MALME-3M melanoma
  TGI: 45.9 µM
MOLT-4 leukemia
  TGI: > 100 µM
M14 melanoma
  TGI: 81.6 µM
PC-3 prostate
  TGI: > 100 µM
BT-549 breast
  TGI: 61.4 µM
RXF 393 renal
  TGI: > 100 µM
SK-MEL-28 melanoma
  TGI: > 100 µM
MDA-MB-231 breast
  TGI: > 100 µM
SR leukemia
  TGI: > 100 µM
HCC-2998 colon
  TGI: 94.8 µM
U251 CNS
  TGI: > 100 µM
DU-145 prostate
  TGI: > 100 µM
NCI-H23 lung
  TGI: > 100 µM
SF-268 CNS
  TGI: > 100 µM
HCT-116 colon
  TGI: 77.3 µM
HOP-92 NSCLC
  TGI: > 100 µM
HL-60(TB) leukemia
  TGI: 57.9 µM

## Cn1c(-c2cccs2)cc(-c2ccccc2)c1-c1cccs1
A498 renal
  TGI: > 100 µM
ACHN renal
  TGI: > 100 µM
UACC-62 melanoma
  TGI: > 100 µM
K-562 leukemia
  TGI: > 100 µM
T-47D breast
  TGI: > 100 µM
SF-295 CNS
  TGI: > 100 µM
EKVX NSCLC
  TGI: > 100 µM
HS 578T breast
  TGI: > 100 µM
OVCAR-3 ovarian
  TGI: 47.6 µM
MDA-MB-435
  TGI: > 100 µM
SK-MEL-2 melanoma
  TGI: > 100 µM
UO-31 renal
  TGI: > 100 µM
RPMI-8226 leukemia
  TGI: > 100 µM
OVCAR-5 ovarian
  TGI: > 100 µM
NCI/ADR-RES ovarian
  TGI: > 100 µM
SK-OV-3 ovarian
  TGI: > 100 µM
MDA-N
  TGI: > 100 µM
UACC-257 melanoma
  TGI: > 100 µM
786-0 renal
  TGI: > 100 µM
OVCAR-4 ovarian
  TGI: > 100 µM
SF-539 CNS
  TGI: > 100 µM
HT29 colon
  TGI: > 100 µM
MCF7 breast
  TGI: > 100 µM
NCI-H522 lung
  TGI: > 100 µM
SK-MEL-5 melanoma
  TGI: > 100 µM
NCI-H226 lung
  TGI: > 100 µM
SW-620 colon
  TGI: > 100 µM
IGROV1 ovarian
  TGI: > 100 µM
HOP-62 NSCLC
  TGI: 51.5 µM
HCT-15 colon
  TGI: > 100 µM
KM12 colon
  TGI: > 100 µM
NCI-H460 lung
  TGI: > 100 µM
CAKI-1 renal
  TGI: > 100 µM
TK-10 renal
  TGI: > 100 µM
SNB-75 CNS
  TGI: > 100 µM
CCRF-CEM leukemia
  TGI: > 100 µM
SN12C renal
  TGI: > 100 µM
SNB-19 CNS
  TGI: 47.5 µM
COLO 205 colon
  TGI: > 100 µM
OVCAR-8 ovarian
  TGI: > 100 µM
A549 NSCLC
  TGI: 45.7 µM
MOLT-4 leukemia
  TGI: > 100 µM
M14 melanoma
  TGI: > 100 µM
PC-3 prostate
  TGI: > 100 µM
BT-549 breast
  TGI: > 100 µM
RXF 393 renal
  TGI: > 100 µM
SK-MEL-28 melanoma
  TGI: > 100 µM
MDA-MB-231 breast
  TGI: > 100 µM
SR leukemia
  TGI: > 100 µM
HCC-2998 colon
  TGI: > 100 µM
U251 CNS
  TGI: > 100 µM
DU-145 prostate
  TGI: > 100 µM
LOX IMVI melanoma
  TGI: > 100 µM
NCI-H23 lung
  TGI: > 100 µM
SF-268 CNS
  TGI: > 100 µM
HCT-116 colon
  TGI: > 100 µM
HOP-92 NSCLC
  TGI: > 100 µM
HL-60(TB) leukemia
  TGI: > 100 µM
